Measured values published in patent US10010541B2, “Modulation of tissue transglutaminase activation in disease” (The Board of Trustees of the Leland Stanford Junior …, priority 2014, dated 2018).

Columns and labels:
TG2 = target: T1, TG2 (Mus musculus, UniProt P21981); test: TG2 activity (5-BP probe) in tissues of LPS-induced septic mice; format: in vivo; details: septic mice (LPS 5 mg/kg iv); 50 mg/kg intraperitoneally
T1 construct: host or cells: mice (in vivo)
T1 sequence (P21981 1-686): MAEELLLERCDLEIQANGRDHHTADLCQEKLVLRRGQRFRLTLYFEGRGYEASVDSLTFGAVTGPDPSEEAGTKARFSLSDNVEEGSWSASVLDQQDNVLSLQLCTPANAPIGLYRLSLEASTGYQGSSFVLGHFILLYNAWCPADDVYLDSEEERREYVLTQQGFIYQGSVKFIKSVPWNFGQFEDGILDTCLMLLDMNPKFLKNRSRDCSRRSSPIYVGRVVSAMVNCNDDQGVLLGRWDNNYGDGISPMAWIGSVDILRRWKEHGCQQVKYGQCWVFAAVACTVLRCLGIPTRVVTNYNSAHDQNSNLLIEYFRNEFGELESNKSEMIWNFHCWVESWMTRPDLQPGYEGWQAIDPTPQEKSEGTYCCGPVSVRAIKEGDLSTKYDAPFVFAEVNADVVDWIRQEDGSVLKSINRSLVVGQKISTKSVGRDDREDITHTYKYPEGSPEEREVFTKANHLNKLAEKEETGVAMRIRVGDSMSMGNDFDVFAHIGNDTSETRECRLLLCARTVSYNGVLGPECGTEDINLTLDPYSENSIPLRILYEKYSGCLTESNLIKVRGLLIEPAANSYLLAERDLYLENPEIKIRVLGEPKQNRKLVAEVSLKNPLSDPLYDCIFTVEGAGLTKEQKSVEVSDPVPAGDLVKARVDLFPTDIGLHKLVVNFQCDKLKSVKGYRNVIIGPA
Method: FIG. 2: TG2 is active in septic mice and can be inhibited by the intraperitoneal administration of 50 mg/kg CK996: Panels (A) through (C) depict tissues from the liver, lung and small intestine from septic male BL6 mice that were stained for TG2 protein (top row) or TG2 activity (middle row). The bottom row depicts the merged images from the TG2 protein and activity channel, respectively. Tissues from mice that had received the TG2 inhibitor CK996 are shown in the right set of images in each panel whereas tissues from control mice that received vehicle only are shown in the left set of images. Panel (D) quantifies the ratio of TG2 activity to TG2 protein signal intensity. All mice in this study received lipopolysaccharide (LPS, 5 mg/kg i.v., at t=0) and the TG2 activity-based probe 5-biotinamidopentylamine (5-BP, 100 mg/kg i.p., at t=0 and 90 min)(Dafik et al., 2012; Siegel et al., 2008). One cohort of mice additionally received an intraperitoneal dose of the TG2 inhibitor CK996 (50 mg/kg i.p., at t=0 and 60 min) in vehicle (PBS with 10% DMSO and 2% 2,6-di-(OMe)-beta-cyclodextrin), whereas the control mice received the vehicle alone. At 3 hours the mice were euthanized, tissues collected and frozen in OCT medium and then TG2 protein and activity (5-BP) stained, imaged and quantified as described in the literature (Diraimondo et al., 2013 ACS Chem. Biol.). […]

[1] = tested on: proinflammatory cytokines IL-6, PAI-1 and MIP1α; test: circulating proinflammatory cytokines in LPS-induced murine sepsis (ELISA); format: in vivo, mice
Method: FIG. 3: The TG2 inhibitor CK996 reduces the proinflammatory cytokine load in septic mice at doses as low as 1.5 mg/kg: The graphs display the absolute circulating levels of the proinflammatory cytokines IL-6, PAI-1 and MIP1α in septic male BL6 mice as a function of the dose of intraperitoneally administered CK996 or ERW1041E. In each graph, the right y-axis depicts the relative levels of the respective cytokines over their background level in our control cohort. All septic mice in this study received lipopolysaccharide (LPS, 5 mg/kg i.v., at t=0) and either a TG2 inhibitor (CK996 or ERW1041E at 50, 15, 5.0 and 1.5 mg/kg i.p., at t=0 and 60 min) in vehicle (PBS with 5% DMSO, 2% Tween-80 and 2.5% hydroxypropyl-beta-cyclodextrin) or, for the septic control cohort, vehicle alone. An additional cohort defining the baseline cytokine levels received only intravenous vehicle and intraperitoneal inhibitor vehicle, respectively. At 3 hours the mice were euthanized and plasma collected in lithium heparin tubes. The levels of the respective proinflammatory cytokines were quantified using commercial ELISA kits according to the manufacturers' instructions. […]
Having established that intraperitoneal administration of CK996 could suppress TG2 activity in septic mice, we next sought to determine whether this pharmacologic intervention had any effect on the circulating levels of the key proinflammatory cytokines in sepsis. To this end, we administered CK996 in doses of 1.5, 5.0, 15 or 50 mg/kg intraperitoneally to septic mice (5 mg/kg LPS, iv) and measured the level of the proinflammatory cytokines IL-6, PAI-1 and MIP1α in plasma that was collected at 3 hours after infusion of LPS.
We therefore co-administered recombinant human thioredoxin protein (10 mg/kg, ip) along with CK996 (50 mg/kg, ip) to septic mice (5 mg/kg, iv) and quantified the load of proinflammatory cytokines as above.

TG2 activity in intestines, livers and lungs (TG2): fully suppressed
SMILES: O=C(N[C@@H]1C[C@@H](C(=O)NC[C@@H]2CC(Br)=NO2)N(C(=O)OCc2cnc3ccccc3c2)C1)c1cccnc1 [Compound 5, (2S,4R)-quinolin-3-ylmethyl 2-((((S)-3-bromo-4,5-dihydroisoxazol-5-yl)methyl)carbamoyl)-4-(nicotinamido)pyrrolidine-1-carboxylate]
circulating levels of IL-6, PAI-1 and MIP1α ([1]; septic mice (LPS 5 mg/kg iv), all doses tested (1.5, 5.0, 15 or 50 mg/kg ip), plasma at 3 hours): dramatically reduced
dose that reduces the proinflammatory cytokine load ([1]; septic mice, ip at t=0 and 60 min): ≤ 1.5 mg/kg
